# According to patent US20230295197A1, “STAT5 and STAT6 Degraders and Uses Thereof” (REGENTS OF THE UNIVERSITY OF MICHICAN, priority 2022, published 2023):
# *1 amine or outer side, *2 acyl side, *3 side chain or, on linkers, in order; H or OH if unused. Where a SMILES comes first, the peptide text is derived from it. [ ]: non-standard residue; d: D form. The star is where a group is joined. Benzothienyl2CO(5-CF2PO3H2) = O=C(c1cc2cc(C(F)(F)P(=O)(O)O)ccc2s1)*; βAla(N-(4-Br-phenyl)) = O=C(CCN(c1ccc(Br)cc1)[*:1])[*:2]; NHBn(4-(4-Me-thiazol-5-yl)) = Cc1ncsc1-c1ccc(CN*)cc1; NH(CH2)8CO = O=C(CCCCCCCCN[*:1])[*:2]; Hyp = O=C(O)[C@@H]1C[C@@H](O)CN1; Tle = CC(C)(C)[C@H](N)C(=O)O; Ahx = NCCCCCC(=O)O
# Target: T1, STAT6 (Homo sapiens, UniProt P42226)
# T1 construct: endogenous in cells; host or cells: MOLM-16, KU-812, SKNO1, MB231, L1236
# T1 sequence (P42226 1-847): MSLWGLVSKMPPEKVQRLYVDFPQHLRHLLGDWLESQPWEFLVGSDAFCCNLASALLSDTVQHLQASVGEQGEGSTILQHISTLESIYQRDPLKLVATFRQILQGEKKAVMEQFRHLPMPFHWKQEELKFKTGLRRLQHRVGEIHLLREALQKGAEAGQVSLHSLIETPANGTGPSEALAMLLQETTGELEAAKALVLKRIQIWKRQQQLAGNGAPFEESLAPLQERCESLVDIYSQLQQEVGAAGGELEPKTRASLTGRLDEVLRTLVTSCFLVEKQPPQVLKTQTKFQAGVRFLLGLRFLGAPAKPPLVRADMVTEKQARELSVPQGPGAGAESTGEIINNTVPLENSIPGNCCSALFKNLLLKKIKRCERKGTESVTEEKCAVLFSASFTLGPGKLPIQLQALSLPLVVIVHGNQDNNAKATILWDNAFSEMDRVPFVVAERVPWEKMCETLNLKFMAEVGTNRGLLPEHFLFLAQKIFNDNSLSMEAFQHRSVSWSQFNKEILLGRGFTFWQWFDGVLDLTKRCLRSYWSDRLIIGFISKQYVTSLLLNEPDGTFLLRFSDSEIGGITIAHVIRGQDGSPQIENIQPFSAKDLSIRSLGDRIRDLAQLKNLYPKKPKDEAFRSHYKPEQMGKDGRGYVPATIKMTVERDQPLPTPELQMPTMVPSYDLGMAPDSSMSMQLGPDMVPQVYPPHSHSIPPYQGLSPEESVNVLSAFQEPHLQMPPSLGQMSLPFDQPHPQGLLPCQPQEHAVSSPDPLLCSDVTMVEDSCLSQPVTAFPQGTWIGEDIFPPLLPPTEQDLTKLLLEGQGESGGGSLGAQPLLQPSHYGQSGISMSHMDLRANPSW
# Assay: Immunoblotting (Western blot) analysis of STAT6 degradation efficiency of degraders in treated cells
# Type: cell-based
# Conditions: L1236 cells, read-out: DC50 S6 L1236
# How it was run: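 Cells (~1 million per point) treated with compounds at indicated concentrations and times, lysed in RIPA with protease/phosphatase inhibitors; 20-40 μg protein run on SDS-PAGE and blotted to PVDF. STAT6 or STAT5 rabbit mAbs with GAPDH loading control, IRDye secondaries; near-infrared fluorescence scan, band intensity quantified.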
row,Structure (SMILES),DC50
1,"Cc1ncsc1-c1ccc([C@H](C)NC(=O)[C@@H]2C[C@@H](O)CN2C(=O)[C@@H](NC(=O)CCCNC(=O)COc2ccc3c(c2)CN(C(=O)[C@@H](NC(=O)c2cc4cc(C(F)(F)P(=O)(O)O)ccc4s2)C(C)(C)C)[C@H](C(=O)N2CCO[C@H](c4ccccc4)C2)C3)C(C)(C)C)cc1 [Compound 463, (difluoro(2-(((S)-1-((S)-7-(2-((4-(((S)-1-((2S,4R)-4-hydroxy-2-(((S)-1-(4-(4-methylthiazol-5-yl)phenyl)ethyl)carbamoyl)pyrrolidin-1-yl)-3,3-dimethyl-1-oxobutan-2-yl)amino)-4-oxobutyl)amino)-2-oxoethoxy)-3-((R)-2-phenylmorpholine-4-carbonyl)-3,4-dihydroisoquinolin-2(1H)-yl)-3,3-dimethyl-1-oxobutan-2-yl)carbamoyl)benzo[b]thiophen-5-yl)methyl)phosphonic acid]",> 10 µM
2,"Cc1ncsc1-c1ccc([C@H](C)NC(=O)[C@@H]2C[C@@H](O)CN2C(=O)[C@@H](NC(=O)CCCCCCCNC(=O)CC(=O)N2CCN(C(=O)[C@@H](NC(=O)c3cc4cc(C(F)(F)P(=O)(O)O)ccc4s3)C(C)(C)C)[C@H](C(=O)N3CCC[C@H](c4ccccc4)C3)C2)C(C)(C)C)cc1 [Compound 458, (difluoro(2-(((S)-1-((S)-4-(3-((8-(((S)-1-((2S,4R)-4-hydroxy-2-(((S)-1-(4-(4-methylthiazol-5-yl)phenyl)ethyl)carbamoyl)pyrrolidin-1-yl)-3,3-dimethyl-1-oxobutan-2-yl)amino)-8-oxooctyl)amino)-3-oxopropanoyl)-2-((R)-3-phenylpiperidine-1-carbonyl)piperazin-1-yl)-3,3-dimethyl-1-oxobutan-2-yl)carbamoyl)benzo[b]thiophen-5-yl)methyl)phosphonic acid]",> 10 µM

# Same assay, conditions: MOLM-16 cells, class symbols, read-out: DC50 S6 MOLM-16
row,Structure (SMILES),DC50
1,"CC(C)(C)[C@H](NC(=O)c1cc2cc(C(F)(F)P(=O)(O)O)ccc2s1)C(=O)N1C[C@@H](OCC(=O)NCCCC#Cc2ccc3c(c2)C(=O)N(C2CCC(=O)NC2=O)C3=O)C[C@H]1C(=O)N1CCO[C@H](c2ccccc2)C1 (stereo partly drawn) [Compound 484, ((2-(((2S)-1-((2S,4S)-4-(2-((5-(2-(2,6-dioxopiperidin-3-yl)-1,3-dioxoisoindolin-5-yl)pent-4-yn-1-yl)amino)-2-oxoethoxy)-2-((R)-2-phenylmorpholine-4-carbonyl)pyrrolidin-1-yl)-3,3-dimethyl-1-oxobutan-2-yl)carbamoyl)benzo[b]thiophen-5-yl)difluoromethyl)phosphonic acid]",1 to 10 µM
2,"CC(C)(C)[C@H](NC(=O)c1cc2cc(C(F)(F)P(=O)(O)O)ccc2s1)C(=O)N1CCN(C(=O)CC(=O)NCCCCCCCCC#Cc2ccc3c(c2)C(=O)N(C2CCC(=O)NC2=O)C3=O)C[C@H]1C(=O)N1CCO[C@H](c2ccccc2)C1 (stereo partly drawn) [Compound 518, ((2-(((2S)-1-((2S)-4-(3-((10-(2-(2,6-dioxopiperidin-3-yl)-1,3-dioxoisoindolin-5-yl)dec-9-yn-1-yl)amino)-3-oxopropanoyl)-2-((R)-2-phenylmorpholine-4-carbonyl)piperazin-1-yl)-3,3-dimethyl-1-oxobutan-2-yl)carbamoyl)benzo[b]thiophen-5-yl)difluoromethyl)phosphonic acid]",> 10 µM
3,"CC(C)(C)[C@H](NC(=O)c1cc2cc(C(F)(F)P(=O)(O)O)ccc2s1)C(=O)N1CCN(C(=O)CC(=O)NCCC#Cc2cccc3c2C(=O)N(C2CCC(=O)NC2=O)C3=O)C[C@H]1C(=O)N1CCO[C@H](c2ccccc2)C1 (stereo partly drawn) [Compound 509, ((2-(((2S)-1-((2S)-4-(3-((4-(2-(2,6-dioxopiperidin-3-yl)-1,3-dioxoisoindolin-4-yl)but-3-yn-1-yl)amino)-3-oxopropanoyl)-2-((R)-2-phenylmorpholine-4-carbonyl)piperazin-1-yl)-3,3-dimethyl-1-oxobutan-2-yl)carbamoyl)benzo[b]thiophen-5-yl)difluoromethyl)phosphonic acid]",> 10 µM
4,"Cc1ncsc1-c1ccc([C@H](C)NC(=O)[C@@H]2C[C@@H](O)CN2C(=O)[C@@H](NC(=O)CCCNC(=O)COc2ccc3c(c2)CN(C(=O)[C@@H](NC(=O)c2cc4cc(C(F)(F)P(=O)(O)O)ccc4s2)C(C)(C)C)[C@H](C(=O)N2CCO[C@H](c4ccccc4)C2)C3)C(C)(C)C)cc1 [Compound 463, (difluoro(2-(((S)-1-((S)-7-(2-((4-(((S)-1-((2S,4R)-4-hydroxy-2-(((S)-1-(4-(4-methylthiazol-5-yl)phenyl)ethyl)carbamoyl)pyrrolidin-1-yl)-3,3-dimethyl-1-oxobutan-2-yl)amino)-4-oxobutyl)amino)-2-oxoethoxy)-3-((R)-2-phenylmorpholine-4-carbonyl)-3,4-dihydroisoquinolin-2(1H)-yl)-3,3-dimethyl-1-oxobutan-2-yl)carbamoyl)benzo[b]thiophen-5-yl)methyl)phosphonic acid]",> 10 µM
5,"CC(C)(C)[C@H](NC(=O)c1cc2cc(C(F)(F)P(=O)(O)O)ccc2s1)C(=O)N1C[C@@H](OCC(=O)NCCCCCC#Cc2cccc3c2C(=O)N(C2CCC(=O)NC2=O)C3=O)C[C@H]1C(=O)N1CCC[C@H](c2ccccc2)C1 (stereo partly drawn) [Compound 501, ((2-(((2S)-1-((2S,4S)-4-(2-((7-(2-(2,6-dioxopiperidin-3-yl)-1,3-dioxoisoindolin-4-yl)hept-6-yn-1-yl)amino)-2-oxoethoxy)-2-((R)-3-phenylpiperidine-1-carbonyl)pyrrolidin-1-yl)-3,3-dimethyl-1-oxobutan-2-yl)carbamoyl)benzo[b]thiophen-5-yl)difluoromethyl)phosphonic acid]",> 10 µM
6,"CC(C)(C)[C@H](NC(=O)c1cc2cc(C(F)(F)P(=O)(O)O)ccc2s1)C(=O)N1Cc2cc(OCC(=O)NCCC#Cc3cccc4c3C(=O)N(C3CCC(=O)NC3=O)C4=O)ccc2C[C@H]1C(=O)N1CCO[C@H](c2ccccc2)C1 (stereo partly drawn) [Compound 537, ((2-(((2S)-1-((3S)-7-(2-((4-(2-(2,6-dioxopiperidin-3-yl)-1,3-dioxoisoindolin-4-yl)but-3-yn-1-yl)amino)-2-oxoethoxy)-3-((R)-2-phenylmorpholine-4-carbonyl)-3,4-dihydroisoquinolin-2(1H)-yl)-3,3-dimethyl-1-oxobutan-2-yl)carbamoyl)benzo[b]thiophen-5-yl)difluoromethyl)phosphonic acid]",> 10 µM
7,"CC(C)(C)[C@H](NC(=O)c1cc2cc(C(F)(F)P(=O)(O)O)ccc2s1)C(=O)N1Cc2cc(OCC(=O)NCCCC#Cc3cccc4c3C(=O)N(C3CCC(=O)NC3=O)C4=O)ccc2C[C@H]1C(=O)N1CCO[C@H](c2ccccc2)C1 (stereo partly drawn) [Compound 539, ((2-(((2S)-1-((3S)-7-(2-((5-(2-(2,6-dioxopiperidin-3-yl)-1,3-dioxoisoindolin-4-yl)pent-4-yn-1-yl)amino)-2-oxoethoxy)-3-((R)-2-phenylmorpholine-4-carbonyl)-3,4-dihydroisoquinolin-2(1H)-yl)-3,3-dimethyl-1-oxobutan-2-yl)carbamoyl)benzo[b]thiophen-5-yl)difluoromethyl)phosphonic acid]",> 10 µM
8,"Cc1ncsc1-c1ccc([C@H](C)NC(=O)[C@@H]2C[C@@H](O)CN2C(=O)[C@@H](NC(=O)CCCCCCCNC(=O)CC(=O)N2CCN(C(=O)[C@@H](NC(=O)c3cc4cc(C(F)(F)P(=O)(O)O)ccc4s3)C(C)(C)C)[C@H](C(=O)N3CCC[C@H](c4ccccc4)C3)C2)C(C)(C)C)cc1 [Compound 458, (difluoro(2-(((S)-1-((S)-4-(3-((8-(((S)-1-((2S,4R)-4-hydroxy-2-(((S)-1-(4-(4-methylthiazol-5-yl)phenyl)ethyl)carbamoyl)pyrrolidin-1-yl)-3,3-dimethyl-1-oxobutan-2-yl)amino)-8-oxooctyl)amino)-3-oxopropanoyl)-2-((R)-3-phenylpiperidine-1-carbonyl)piperazin-1-yl)-3,3-dimethyl-1-oxobutan-2-yl)carbamoyl)benzo[b]thiophen-5-yl)methyl)phosphonic acid]",> 10 µM

# Same assay, conditions: MOLM-16 cells, numeric bound, read-out: DC50 S6 MOLM-16
row,DC50,Structure (SMILES)
1,> 0.3 µM,"CC(C)(C)[C@H](NC(=O)c1cc2cc(C(F)(F)P(=O)(O)O)ccc2s1)C(=O)N1C[C@@H](OCCCCCCC#Cc2cccc3c2CN(C2CCC(=O)NC2=O)C3=O)C[C@H]1C(=O)N1CCOC(c2ccc(F)c(Cl)c2)C1 (stereo partly drawn) [Compound 608, ((2-(((2S)-1-((2S,4S)-2-(2-(3-chloro-4-fluorophenyl)morpholine-4-carbonyl)-4-((8-(2-(2,6-dioxopiperidin-3-yl)-1-oxoisoindolin-4-yl)oct-7-yn-1-yl)oxy)pyrrolidin-1-yl)-3,3-dimethyl-1-oxobutan-2-yl)carbamoyl)benzo[b]thiophen-5-yl)difluoromethyl)phosphonic acid]"
2,> 0.3 µM,"CC(C)(C)[C@H](NC(=O)c1cc2cc(C(F)(F)P(=O)(O)O)ccc2s1)C(=O)N1CCN(C(=O)CCCC#Cc2ccc3c(c2)CN(C2CCC(=O)NC2=O)C3=O)C[C@H]1C(=O)N1CCO[C@H](c2ccccc2)C1 (stereo partly drawn) [Compound 597, ((2-(((2S)-1-((2S)-4-(6-(2-(2,6-dioxopiperidin-3-yl)-1-oxoisoindolin-5-yl)hex-5-ynoyl)-2-((R)-2-phenylmorpholine-4-carbonyl)piperazin-1-yl)-3,3-dimethyl-1-oxobutan-2-yl)carbamoyl)benzo[b]thiophen-5-yl)difluoromethyl)phosphonic acid]"

# Same assay, conditions: read-out: DC50 S6 MB231, MB231 cells
row,Structure (SMILES),DC50
1,Cc1ncsc1-c1ccc(CNC(=O)[C@@H]2C[C@@H](O)CN2C(=O)[C@@H](NC(=O)CCCCCNC(=O)CCN(C(=O)[C@@H]2CCCN2C(=O)[C@@H](NC(=O)c2cc3cc(C(F)(F)P(=O)(O)O)ccc3s2)C(C)(C)C)c2ccc(Br)cc2)C(C)(C)C)cc1 [Compound 400] ({Benzothienyl2CO(5-CF2PO3H2)}-[Tle]P[βAla(N-(4-Br-phenyl))][Ahx][Tle][Hyp]-{NHBn(4-(4-Me-thiazol-5-yl))}),> 10 µM
2,Cc1ncsc1-c1ccc(CNC(=O)[C@@H]2C[C@@H](O)CN2C(=O)[C@@H](NC(=O)CCCCCCCCNC(=O)CCN(C(=O)[C@@H]2CCCN2C(=O)[C@@H](NC(=O)c2cc3cc(C(F)(F)P(=O)(O)O)ccc3s2)C(C)(C)C)c2ccc(Br)cc2)C(C)(C)C)cc1 [Compound 397] ({Benzothienyl2CO(5-CF2PO3H2)}-[Tle]P[βAla(N-(4-Br-phenyl))][NH(CH2)8CO][Tle][Hyp]-{NHBn(4-(4-Me-thiazol-5-yl))}),> 10 µM
